{
  "source": "patent US6610747B2",
  "about": "“Phenoxybenzylamine derivatives as SSRIs” (Pfizer Inc., priority 2000, dated 2003)",
  "data": [
    {"biological_target": "T1, human serotonin transporter (hSERT) (Homo sapiens, UniProt P31645)", "T1 construct": "expressed in transfected cells; host or cells: HEK-293", "T1 sequence (P31645 whole entry)": "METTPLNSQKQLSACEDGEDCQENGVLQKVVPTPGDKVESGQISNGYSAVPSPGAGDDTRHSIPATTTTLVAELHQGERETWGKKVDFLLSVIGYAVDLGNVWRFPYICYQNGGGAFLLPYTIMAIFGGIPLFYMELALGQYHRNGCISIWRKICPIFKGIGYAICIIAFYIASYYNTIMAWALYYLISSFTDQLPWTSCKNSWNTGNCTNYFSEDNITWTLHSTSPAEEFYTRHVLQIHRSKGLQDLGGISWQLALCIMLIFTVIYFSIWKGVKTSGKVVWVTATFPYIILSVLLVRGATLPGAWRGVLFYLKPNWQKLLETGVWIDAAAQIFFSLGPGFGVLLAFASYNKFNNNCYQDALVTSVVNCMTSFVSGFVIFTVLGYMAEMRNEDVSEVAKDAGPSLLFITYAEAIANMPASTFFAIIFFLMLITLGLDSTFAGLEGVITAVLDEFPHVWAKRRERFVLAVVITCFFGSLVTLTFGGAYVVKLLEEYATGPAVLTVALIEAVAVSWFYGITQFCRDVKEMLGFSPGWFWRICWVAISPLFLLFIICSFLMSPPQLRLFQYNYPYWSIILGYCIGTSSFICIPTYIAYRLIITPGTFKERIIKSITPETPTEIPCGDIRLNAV", "experiment": "Inhibition of 3H-serotonin uptake in HEK-293 cells stably transfected with the human serotonin transporter (SRI)", "type": "cell-based", "conditions": "HEK-293 cells expressing hSERT; 3H-5HT (50 nM); 5 min incubation; room temperature; read-out: serotonin re-uptake inhibition (SRI) IC50", "protocol": "A number of compounds were tested for biological activity by their ability to inhibit the uptake of serotonin by human serotonin transporters as follows.\nHuman embryonic kidney cells (HEK-293) stably transfected with either the human serotonin transporter (hSERT), noradrenaline transporter (hNET) or dopamine transporter (hDAT) were cultured under standard cell culture techniques (cells were grown at 37° C. and 5% CO2 in DMEM-culture media (supplemented with 10% dialysed foetal calf serum (FCS), 2mM l-glutamine and 250 μg/ml geneticin)). Cells were harvested for the assay to yield a cell suspension of 750,000 cells/ml.\n(i) Determination of Inhibitor Potency\nAll test compounds were dissolved in 100% DMSO and diluted down in assay buffer to give appropriate test concentrations. Assays were carried out in 96-well filter bottom plates. Cells (7500 cells/assay well) were pre-incubated in standard assay buffer containing either test compound, standard inhibitor or compound vehicle (1% DMSO) for 5 minutes. Reactions were started by addition of either ^3H-Serotonin, ^3H-Noradrenaline or ^3H-Dopamine substrates. All reactions were carried out at room temperature in a shaking incubator. Incubation times were 5 minutes for the hSERT and hDAT assays and 15 minutes for the hNET assay. Reactions were terminated by removal of the reaction mixture using a vacuum manifold followed by rapid washing with ice cold assay buffer. The quantity of ^3H-substrate incorporated into the cells was then quantified.\nAssay plates were dried in a microwave oven, scintillation fluid added, and radioactivity measured.\n(iii) Standard Assay Buffer Composition\nTrizma hydrochloride (26 mM)\nNote: The pH of the buffer was adjusted to 7.40 with 1M NaOH before addition of CaCl2 and pargyline.\n(iv) Summary of Assay Parameters", "units": {"IC50": "nM"}, "values": [
      {"smiles": "CN(C)Cc1cc(S(N)(=O)=O)ccc1Oc1ccc2c(c1)CCS2", "note": "[Example 16, 4-(2,3-dihydro-1-benzothien-5-yloxy)-3-[(dimethylamino)methyl]-benzenesulfonamide]", "IC50": 4.7},
      {"smiles": "CN(C)Cc1ccccc1Oc1ccc2ncccc2c1", "note": "[Example 29, N,N-dimethyl-N-[2-(6-quinolinyloxy)benzyl]amine]", "IC50": 2},
      {"smiles": "CNCc1cc(C(=O)NC)ccc1Oc1ccc2c(c1)CCS2", "note": "[Example 62, 4-(2,3-dihydro-1-benzothien-5-yloxy)-N-methyl-3-[(methylamino)methyl]-benzamide]", "IC50": 3.7}
    ]}
  ]
}
